Measured values from PubChem BioAssay (NCI).
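Test compounds were applied to cells in 96-well plates for 48 hours at 5 doses. At the TGI there is no net growth.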

What was measured:
Test in all cases: NCI-60 cell line screen, 48 h
MDA-MB-231 breast = system: MDA-MB-231 breast
HL-60(TB) leukemia = system: HL-60(TB) leukemia
SK-MEL-5 melanoma = system: SK-MEL-5 melanoma
OVCAR-8 ovarian = system: OVCAR-8 ovarian
HT29 colon = system: HT29 colon
PC-3 prostate = system: PC-3 prostate
SW-620 colon = system: SW-620 colon
HOP-92 NSCLC = system: HOP-92 NSCLC
SK-MEL-28 melanoma = system: SK-MEL-28 melanoma
UO-31 renal = system: UO-31 renal
ACHN renal = system: ACHN renal
CCRF-CEM leukemia = system: CCRF-CEM leukemia
HCC-2998 colon = system: HCC-2998 colon
U251 CNS = system: U251 CNS
TK-10 renal = system: TK-10 renal
MCF7 breast = system: MCF7 breast
MDA-N = system: MDA-N
CAKI-1 renal = system: CAKI-1 renal
OVCAR-3 ovarian = system: OVCAR-3 ovarian
SNB-75 CNS = system: SNB-75 CNS
DU-145 prostate = system: DU-145 prostate
HS 578T breast = system: HS 578T breast
NCI-H522 lung = system: NCI-H522 lung
SR leukemia = system: SR leukemia
SF-268 CNS = system: SF-268 CNS
LOX IMVI melanoma = system: LOX IMVI melanoma
SF-539 CNS = system: SF-539 CNS
A549 NSCLC = system: A549 NSCLC
MOLT-4 leukemia = system: MOLT-4 leukemia
MALME-3M melanoma = system: MALME-3M melanoma
RPMI-8226 leukemia = system: RPMI-8226 leukemia
SK-OV-3 ovarian = system: SK-OV-3 ovarian
UACC-257 melanoma = system: UACC-257 melanoma
HOP-62 NSCLC = system: HOP-62 NSCLC
IGROV1 ovarian = system: IGROV1 ovarian
A498 renal = system: A498 renal
EKVX NSCLC = system: EKVX NSCLC
RXF 393 renal = system: RXF 393 renal
786-0 renal = system: 786-0 renal
SK-MEL-2 melanoma = system: SK-MEL-2 melanoma
KM12 colon = system: KM12 colon
COLO 205 colon = system: COLO 205 colon
M14 melanoma = system: M14 melanoma
NCI/ADR-RES ovarian = system: NCI/ADR-RES ovarian
T-47D breast = system: T-47D breast
NCI-H226 lung = system: NCI-H226 lung
OVCAR-4 ovarian = system: OVCAR-4 ovarian
BT-549 breast = system: BT-549 breast
OVCAR-5 ovarian = system: OVCAR-5 ovarian
SF-295 CNS = system: SF-295 CNS
SNB-19 CNS = system: SNB-19 CNS
MDA-MB-435 = system: MDA-MB-435
HCT-116 colon = system: HCT-116 colon
UACC-62 melanoma = system: UACC-62 melanoma
NCI-H23 lung = system: NCI-H23 lung
NCI-H460 lung = system: NCI-H460 lung
HCT-15 colon = system: HCT-15 colon
SN12C renal = system: SN12C renal
DLD-1 colon = system: DLD-1 colon
LXFL 529 NSCLC = system: LXFL 529 NSCLC
HOP-18 NSCLC = system: HOP-18 NSCLC
KM20L2 colon = system: KM20L2 colon

## C=C1[C@H](OC(=O)C(C)C)[C@]23CC4(O)[C@@H]5[C@@]6(C)CCC[C@]57C([C@@H]2C[C@@]1(O)[C@H](O)[C@@H]73)N4C6
MDA-MB-231 breast
  TGI: > 100 µM
HL-60(TB) leukemia
  TGI: > 100 µM
SK-MEL-5 melanoma
  TGI: > 100 µM
OVCAR-8 ovarian
  TGI: > 100 µM
HT29 colon
  TGI: > 100 µM
PC-3 prostate
  TGI: > 100 µM
SW-620 colon
  TGI: > 100 µM
HOP-92 NSCLC
  TGI: > 100 µM
SK-MEL-28 melanoma
  TGI: > 100 µM
UO-31 renal
  TGI: > 100 µM
ACHN renal
  TGI: > 100 µM
CCRF-CEM leukemia
  TGI: > 100 µM
HCC-2998 colon
  TGI: 72.3 µM
U251 CNS
  TGI: > 100 µM
TK-10 renal
  TGI: > 100 µM
MCF7 breast
  TGI: > 100 µM
MDA-N
  TGI: > 100 µM
CAKI-1 renal
  TGI: > 100 µM
OVCAR-3 ovarian
  TGI: > 100 µM
SNB-75 CNS
  TGI: > 100 µM
DU-145 prostate
  TGI: > 100 µM
HS 578T breast
  TGI: > 100 µM
NCI-H522 lung
  TGI: > 100 µM
SR leukemia
  TGI: > 100 µM
SF-268 CNS
  TGI: > 100 µM
LOX IMVI melanoma
  TGI: > 100 µM
SF-539 CNS
  TGI: > 100 µM
A549 NSCLC
  TGI: > 100 µM
MOLT-4 leukemia
  TGI: > 100 µM
MALME-3M melanoma
  TGI: > 100 µM
RPMI-8226 leukemia
  TGI: > 100 µM
SK-OV-3 ovarian
  TGI: > 100 µM
UACC-257 melanoma
  TGI: > 100 µM
HOP-62 NSCLC
  TGI: > 100 µM
IGROV1 ovarian
  TGI: > 100 µM
A498 renal
  TGI: > 100 µM
EKVX NSCLC
  TGI: > 100 µM
RXF 393 renal
  TGI: > 100 µM
786-0 renal
  TGI: > 100 µM
SK-MEL-2 melanoma
  TGI: > 100 µM
KM12 colon
  TGI: > 100 µM
COLO 205 colon
  TGI: > 100 µM
M14 melanoma
  TGI: > 100 µM
NCI/ADR-RES ovarian
  TGI: > 100 µM
T-47D breast
  TGI: > 100 µM
NCI-H226 lung
  TGI: > 100 µM
OVCAR-4 ovarian
  TGI: > 100 µM
BT-549 breast
  TGI: > 100 µM
OVCAR-5 ovarian
  TGI: > 100 µM
SF-295 CNS
  TGI: > 100 µM
SNB-19 CNS
  TGI: > 100 µM
MDA-MB-435
  TGI: > 100 µM
HCT-116 colon
  TGI: > 100 µM
UACC-62 melanoma
  TGI: > 100 µM
NCI-H23 lung
  TGI: > 100 µM
NCI-H460 lung
  TGI: > 100 µM
HCT-15 colon
  TGI: > 100 µM

## COc1ccc2nc3cc(Cl)ccc3c(NCCC[N+](C)(C)CCCCCCCCCCCCCCCC[N+](C)(C)CCCNc3c4ccc(Cl)cc4nc4ccc(OC)cc34)c2c1
OVCAR-8 ovarian
  TGI: > 100 µM
SN12C renal
  TGI: > 100 µM
ACHN renal
  TGI: > 100 µM
TK-10 renal
  TGI: 25.3 µM
CAKI-1 renal
  TGI: > 100 µM
OVCAR-3 ovarian
  TGI: > 100 µM
DLD-1 colon
  TGI: > 100 µM
NCI-H522 lung
  TGI: 8 µM
LXFL 529 NSCLC
  TGI: 3.25 µM
A549 NSCLC
  TGI: > 100 µM
HOP-18 NSCLC
  TGI: 14 µM
KM20L2 colon
  TGI: > 100 µM
A498 renal
  TGI: > 100 µM
EKVX NSCLC
  TGI: 9.97 µM
RXF 393 renal
  TGI: > 100 µM
786-0 renal
  TGI: > 100 µM
NCI-H226 lung
  TGI: > 100 µM
OVCAR-5 ovarian
  TGI: 14.2 µM
SF-295 CNS
  TGI: > 100 µM
HCT-15 colon
  TGI: > 100 µM
